From ChEMBL document CHEMBL1287766, “Discovery of N-benzyl-N'-(4-pipyridinyl)urea CCR5 antagonists as anti-HIV-1 agents (II): modification of the acyl portion” (Bioorg Med Chem Lett, 2010)
pIC50: −log10 of the molar value.

Assays:
[1] = Oral bioavailability in Sprague-Dawley rat at 1 mg/kg; format: ADME, organism-based; conditions: in vivo
[2] = Clearance in Sprague-Dawley rat at 1 mg/kg; format: ADME, organism-based; set-up: dose 1 mg/kg; conditions: in vivo
[3] = system: Human immunodeficiency virus 1; experiment: Antiviral activity against HIV1 BaL in human PBL cells; format: functional, organism-based; conditions: Human immunodeficiency virus 1, BaL
[4] = system: Human immunodeficiency virus 1; experiment: Antiviral activity against HIV1 BaL in human HOS cells; format: functional, organism-based; conditions: Human immunodeficiency virus 1, BaL
[5] = system: HOS; experiment: Cytotoxicity against human HOS cells up to 1 uM; format: cell-based
[6] = system: PBL; experiment: Cytotoxicity against human PBL cells up to 1 uM; format: cell-based
[7] = Apparent permeability across MDCK cells at pH 7.05; format: ADME, cell-based, Canis lupus familiaris; conditions: dog
[8] = Half life in Sprague-Dawley rat at 1 mg/kg; format: ADME, organism-based; set-up: dose 1 mg/kg; conditions: in vivo
[9] = molecular target: Cytochrome P450 3A4 (Homo sapiens, UniProt P08684); experiment: Inhibition of CYP3A4; format: ADME
Cytochrome P450 3A4, sequence (P08684 whole entry): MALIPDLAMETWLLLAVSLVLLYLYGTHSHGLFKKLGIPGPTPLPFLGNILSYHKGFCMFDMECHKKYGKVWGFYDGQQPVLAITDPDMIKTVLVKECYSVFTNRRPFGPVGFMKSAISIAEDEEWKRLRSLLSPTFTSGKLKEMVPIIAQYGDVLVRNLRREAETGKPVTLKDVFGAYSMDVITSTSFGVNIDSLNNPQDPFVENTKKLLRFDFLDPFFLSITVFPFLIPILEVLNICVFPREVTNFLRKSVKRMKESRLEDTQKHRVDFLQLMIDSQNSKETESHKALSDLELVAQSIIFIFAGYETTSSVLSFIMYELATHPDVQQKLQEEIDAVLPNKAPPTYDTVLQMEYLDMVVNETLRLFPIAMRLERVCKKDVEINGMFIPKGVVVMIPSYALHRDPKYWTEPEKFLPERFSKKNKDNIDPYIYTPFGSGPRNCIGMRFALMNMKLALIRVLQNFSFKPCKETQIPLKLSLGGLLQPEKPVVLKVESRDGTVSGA

CC(C)(C)NS(=O)(=O)c1ccc(Cl)c(C(=O)N2CCC(CCN3CCC(N(C(=O)NCc4ccc(C#N)cc4)c4cccc(F)c4)CC3)(c3cccc(F)c3)CC2)c1Cl
bioavailability [1]: 10% | clearance [2]: 9 mL/min/kg | pIC50 [3]: 9.10 | pIC50 [4]: 8.52 | Activity [5]: Non-toxic | Activity [6]: Non-toxic

N#Cc1ccc(CNC(=O)N(c2cccc(F)c2)C2CCN(CCC3(c4cccc(F)c4)CCN(C(=O)c4cc(S(=O)(=O)N5CC[C@H](O)C5)c(F)cc4Cl)CC3)CC2)cc1
bioavailability [1]: 8% | clearance [2]: 24 mL/min/kg | pIC50 [3]: 9.30 | pIC50 [4]: 8.82 | Activity [5]: Non-toxic | Activity [6]: Non-toxic

N#Cc1ccc(CNC(=O)N(c2cccc(F)c2)C2CCN(CCC3(c4cccc(F)c4)CCN(C(=O)c4cc(S(=O)(=O)N5CCCC5)c(F)cc4Cl)CC3)CC2)cc1
bioavailability [1]: 9% | clearance [2]: 9.5 mL/min/kg | pIC50 [3]: 9.22 | pIC50 [4]: 8.82 | Activity [5]: Non-toxic | Activity [6]: Non-toxic

N#Cc1ccc(CNC(=O)N(c2cccc(F)c2)C2CCN(CCC3(c4cccc(F)c4)CCN(C(=O)c4cc(S(=O)(=O)N5CC[C@H](O)C5)c(F)cc4F)CC3)CC2)cc1
bioavailability [1]: 0% | clearance [2]: 43 mL/min/kg | pIC50 [4]: 8.89 | Activity [5]: Non-toxic | Activity [6]: Non-toxic

N#Cc1ccc(CNC(=O)N(c2cccc(F)c2)C2CCN(CCC3(c4cccc(F)c4)CCN(C(=O)c4cc(S(=O)(=O)N5CCCC5)c(F)cc4F)CC3)CC2)cc1
bioavailability [1]: 10% | clearance [2]: 29 mL/min/kg | pIC50 [3]: 9.22 | pIC50 [4]: 9.05 | Activity [5]: Non-toxic | Activity [6]: Non-toxic

N#Cc1ccc(CNC(=O)N(c2cccc(F)c2)C2CCN(CCC3(c4cccc(F)c4)CCN(C(=O)c4cc(S(N)(=O)=O)c(F)cc4F)CC3)CC2)cc1
Papp [7]: < 0.3 ×10⁻⁶ cm/s | clearance [2]: 31 mL/min/kg | pIC50 [3]: 8.28 | pIC50 [4]: 8.40 | Activity [5]: Non-toxic | Activity [6]: Non-toxic

N#Cc1ccc(CNC(=O)N(c2cccc(F)c2)C2CCN(CCC3(c4cccc(F)c4)CCN(C(=O)c4cc(S(N)(=O)=O)c(F)cc4Cl)CC3)CC2)cc1
Papp [7]: < 0.3 ×10⁻⁶ cm/s | clearance [2]: 9.7 mL/min/kg | pIC50 [3]: 9.05 | pIC50 [4]: 8.17 | Activity [5]: Non-toxic | Activity [6]: Non-toxic

N#Cc1ccc(CNC(=O)N(c2cccc(F)c2)C2CCN(CCC3(c4cccc(F)c4)CCN(C(=O)c4c(Cl)ccc(S(N)(=O)=O)c4Cl)CC3)CC2)cc1
Papp [7]: < 0.3 ×10⁻⁶ cm/s | clearance [2]: 16 mL/min/kg | pIC50 [3]: 8.55 | pIC50 [4]: 8.24 | Activity [5]: Non-toxic | Activity [6]: Non-toxic

N#Cc1ccc(CNC(=O)N(c2cccc(F)c2)C2CCN(CCC3(c4cccc(F)c4)CCN(C(=O)c4c(F)ccc(S(N)(=O)=O)c4F)CC3)CC2)cc1
clearance [2]: 25 mL/min/kg | pIC50 [3]: 8.70 | pIC50 [4]: 8.18 | Activity [5]: Non-toxic | Activity [6]: Non-toxic

N#Cc1ccc(CNC(=O)N(c2cccc(F)c2)C2CCN(CCC3(c4cccc(F)c4)CCN(C(=O)c4c(Cl)cncc4Cl)CC3)CC2)cc1
bioavailability [1]: 50% | clearance [2]: 24 mL/min/kg | pIC50 [3]: 8.32 | pIC50 [4]: 8.57 | half-life [8]: 4.9 h | inhibition (INH) [9]: Active | Activity [5]: Non-toxic | Activity [6]: Non-toxic

N#Cc1ccc(CNC(=O)N(c2cccc(F)c2)C2CCN(CCC3(c4cccc(F)c4)CCN(C(=O)c4ccnc(Cl)c4)CC3)CC2)cc1
bioavailability [1]: 64% | clearance [2]: 14.6 mL/min/kg | pIC50 [3]: 7.89 | pIC50 [4]: 7.72 | half-life [8]: 5.8 h | inhibition (INH) [9]: Active | Activity [5]: Non-toxic | Activity [6]: Non-toxic

N#Cc1ccc(CNC(=O)N(c2cccc(F)c2)C2CCN(CCC3(c4cccc(F)c4)CCN(C(=O)c4cccnc4F)CC3)CC2)cc1
bioavailability [1]: 60% | clearance [2]: 22.5 mL/min/kg | pIC50 [3]: 8.21 | pIC50 [4]: 8.19 | half-life [8]: 3.4 h | inhibition (INH) [9]: Active | Activity [5]: Non-toxic | Activity [6]: Non-toxic

Cn1cc(Cl)c(C(=O)N2CCC(CCN3CCC(N(C(=O)NCc4ccc(C#N)cc4)c4cccc(F)c4)CC3)(c3cccc(F)c3)CC2)n1
bioavailability [1]: 11% | clearance [2]: 25 mL/min/kg | pIC50 [3]: 7.66 | pIC50 [4]: 7.77 | half-life [8]: 2.6 h | inhibition (INH) [9]: Active | Activity [5]: Non-toxic | Activity [6]: Non-toxic

N#Cc1ccc(CNC(=O)N(c2cccc(F)c2)C2CCN(CCC3(c4cccc(F)c4)CCN(C(=O)c4cn[nH]c4C(F)(F)F)CC3)CC2)cc1
bioavailability [1]: 3% | clearance [2]: 13 mL/min/kg | pIC50 [4]: 8.09 | half-life [8]: 7.2 h | inhibition (INH) [9]: Active | Activity [5]: Non-toxic | Activity [6]: Non-toxic

N#Cc1ccc(CNC(=O)N(c2cccc(F)c2)C2CCN(CCC3(c4cccc(F)c4)CCN(C(=O)c4nsnc4O)CC3)CC2)cc1
bioavailability [1]: 0% | clearance [2]: 124 mL/min/kg | pIC50 [3]: 7.39 | pIC50 [4]: 8.96 | inhibition (INH) [9]: Active | Activity [5]: Non-toxic | Activity [6]: Non-toxic

CC(C)(C)C(=O)N1CCC(CCN2CCC(N(C(=O)NCc3ccc(C#N)cc3)c3cccc(F)c3)CC2)(c2cccc(F)c2)CC1
bioavailability [1]: 11% | clearance [2]: 10 mL/min/kg | pIC50 [3]: 8.28 | pIC50 [4]: 7.96 | half-life [8]: 2.4 h | Activity [5]: Non-toxic | Activity [6]: Non-toxic

CC(C)(CO)C(=O)N1CCC(CCN2CCC(N(C(=O)NCc3ccc(C#N)cc3)c3cccc(F)c3)CC2)(c2cccc(F)c2)CC1
bioavailability [1]: 63% | clearance [2]: 22 mL/min/kg | pIC50 [3]: 7.70 | pIC50 [4]: 7.72 | half-life [8]: 2.6 h | Activity [5]: Non-toxic | Activity [6]: Non-toxic

CC(CO)(CO)C(=O)N1CCC(CCN2CCC(N(C(=O)NCc3ccc(C#N)cc3)c3cccc(F)c3)CC2)(c2cccc(F)c2)CC1
bioavailability [1]: 7% | clearance [2]: 26 mL/min/kg | pIC50 [4]: 7.66 | half-life [8]: 4.4 h | Activity [5]: Non-toxic | Activity [6]: Non-toxic

N#Cc1ccc(CNC(=O)N(c2cccc(F)c2)C2CCN(CCC3(c4cccc(F)c4)CCN(C(=O)C4CCOCC4)CC3)CC2)cc1
bioavailability [1]: 11% | clearance [2]: 25 mL/min/kg | pIC50 [3]: 7.66 | pIC50 [4]: 7.77 | half-life [8]: 2.6 h | Activity [5]: Non-toxic | Activity [6]: Non-toxic

CC(C)(C#N)C(=O)N1CCC(CCN2CCC(N(C(=O)NCc3ccc(C#N)cc3)c3cccc(F)c3)CC2)(c2cccc(F)c2)CC1
bioavailability [1]: 28% | clearance [2]: 12 mL/min/kg | pIC50 [3]: 7.31 | pIC50 [4]: 8.19 | half-life [8]: 4.3 h | Activity [5]: Non-toxic | Activity [6]: Non-toxic
